This note sets out measurements from publication PMC7438494 (Communications Biology, 2020).

Where “and” joins values, the source holds several entries; their conditions need not be identical. Equal entries are not always repeated. Where two headings read alike, the source gives them in different places.

One assay has as its target yeast F1Fo ATP synthase (Saccharomyces cerevisiae, UniProt P00854+P61829). In words: biochemical. Particulars: for ATP hydrolysis activity, Exp 1-3: upper block, head prints SMP, listed as Og-A.
The target of another assay is human ATP synthase (Homo sapiens, UniProt P00846+P05496). In words: biochemical. In kind it is biochemical.
For assay [1], the target named is yeast mitochondrial ATP synthase (yeast SMP) (Saccharomyces cerevisiae, UniProt P00854+P61829). In words: biochemical. The following applies: for ATP hydrolysis activity, Exp 1-3: SMP, lower block, listed as Og-A.
In assay [2] the target is yeast mitochondrial ATP synthase (Saccharomyces cerevisiae, UniProt P00854+P61829). The assay is described as follows: biochemical. The following applies: for Cyanide sensitive: 60 min.
Assay [3] deals with yeast mitochondrial ATP synthase (Saccharomyces cerevisiae, UniProt P61829). In words: Uncoupling of the yeast mitochondrial ATP synthase. In kind it is biochemical. Particulars: high concentrations.
The mark [4] stands for this setting: 1 ug/ml Oligomycin, […], frozen human mito.
Where [5] appears, read: read-out: % activity, cyanide sensitive ATP synthesis.
Setting [6] is: Oligomycin-A 0.05 μM, cyanide sensitive, yeast frozen mito.
[7] abbreviates: Oligomycin-A 0.6 μM, cyanide sensitive, yeast frozen mito.

As for `CC[C@@H]1/C=C/C=C/C[C@H](C)[C@@H](O)[C@](C)(O)C(=O)[C@H](C)[C@@H](O)[C@H](C)C(=O)[C@H](C)[C@@H](O)[C@H](C)/C=C/C(=O)O[C@H]2[C@@H](C)[C@@H](CC1)O[C@@]1(CC[C@@H](C)[C@@H](C[C@H](C)O)O1)[C@@H]2C` [Oligomycin A], on yeast F1Fo ATP synthase (F1Fo in bicelles, maximal), the “inhibition of ATP hydrolysis by yeast F1Fo (extent)” value is recorded as 85%. For the same compound, the IC50 (in general, the concentration needed to halve the response being measured) at yeast F1Fo ATP synthase (F1Fo in bicelles, n = 3, read-out: IC50 ± SEM, ATP hydrolysis, purified yeast F1Fo) is 107 ± 1.1 nM; on yeast F1Fo ATP synthase (F1Fo in bicelles, read-out: IC50, ATP hydrolysis, purified yeast F1Fo) it was approximately 100 nM; at human ATP synthase (IC50 ± SEM, ATP synthesis, human mitoplasts), 5.4 ± 0.6 nM; in assay [1] (n = 3, read-out: IC50 ± SEM, ATP hydrolysis, yeast SMP) it was ~1100 nM and 1100 nM; in assay [2] (n = 3, read-out: IC50 ± SEM, ATP synthesis, yeast mitochondria), 100 ± 8 nM. Moreover, the EC50 (commonly the concentration at which the effect is half-maximal) at yeast F1Fo ATP synthase (reconstituted in bicelles, n = 3, read-out: EC50, inhibition of the ATPase activity of purified yeast ATP synthase) stood at 107 ± 1.1 nM. For the same compound, the “ATP hydrolysis activity, Exp 1-3” value was 0.9127 and 0.9068 and 0.9174 at yeast F1Fo ATP synthase (Og-A 0.0101128 uM); 0.7469 and 0.6678 and 0.6555 at yeast F1Fo ATP synthase (Og-A 0.0505638 uM); 0.4366 and 0.4305 and 0.5 at yeast F1Fo ATP synthase (Og-A 0.252819 uM); 0.3568 and 0.3661 and 0.3907 at yeast F1Fo ATP synthase (Og-A 1.26409 uM); 0.2269 and 0.2038 and 0.2221 on yeast F1Fo ATP synthase (Og-A 6.32047 uM); 0.2056 and 0.2009 and 0.2105 on yeast F1Fo ATP synthase (Og-A 15.8012 uM). In addition, the “ATP hydrolysis activity, Exp 1-3” value on yeast F1Fo ATP synthase (Og-A 31.6024 uM) is 0.2364 and 0.1839 and 0.1796; in assay [1] (Og-A 0.0101 uM), 0.8851 and 0.8864 and 0.89; in assay [1] (Og-A 0.0506 uM), 0.8632 and 0.8483 and 0.878; in assay [1] (Og-A 0.2528 uM) it was 0.7765 and 0.7817 and 0.7989; in assay [1] (Og-A 0.632 uM), 0.6228 and 0.6613 and 0.6108; in assay [1] (Og-A 1.2641 uM), 0.4529 and 0.4416 and 0.4356. Further, the “ATP hydrolysis activity, Exp 1-3” value in assay [1] (Og-A 6.3205 uM) was 0.1135 and 0.1053 and 0.1112; in assay [1] (Og-A 15.8012 uM) it was 0.0859 and 0.0937 and 0.0705; in assay [1] (Og-A 31.6024 uM) it was 0.097 and 0.0697 and 0.0822. Besides, the “extent of inhibition of ATP synthesis of the human enzyme” value at human ATP synthase was “nearly completely”. Moreover, on human ATP synthase (setting [4]), the “% activity” value worked out at 19.1774%. Further, the % inhibition (usually how much of the control response was suppressed) at human ATP synthase (setting [4]) came to 80.8226%. For the same compound, the “ATP produced, nmol/min/mg” value at human ATP synthase (setting [4]) was 1.61 nmol/min/mg. Moreover, at human ATP synthase (setting [4]), the “ATP produced, pmol/min/mg” value came out at 1614.78 pmol/min/mg. In addition, on human ATP synthase (setting [4]), the activity at 1 µg/mL came out at 19.2%. The inhibition (as a rule, how much of the control response was suppressed) at 1 µg/mL on human ATP synthase (setting [4]) was determined as 80.8%. Also, at human ATP synthase (setting [5]), the remaining activity at 0.001 µM is 70.9%. In addition, the remaining activity at 0.007 µM at human ATP synthase (setting [5]) was determined as 34.6%. The remaining activity at 0.01 µM on human ATP synthase (setting [5]) worked out at 18.4%. Besides, on human ATP synthase (read-out: inhibition of cyanide sensitive ATP synthesis, human mitoplasts), the inhibition at 1.25 µM was 98%. In addition, the remaining activity at 0.0005 µM in assay [2] (Oligomycin-A 0.0005 μM, cyanide sensitive, yeast frozen mito) worked out at 110%. Besides, in assay [2] (Oligomycin-A 0.005 μM, cyanide sensitive, yeast frozen mito), the remaining activity at 0.005 µM was 101%. For the same compound, the Cyanide sensitive in assay [2] (Oligomycin-A 0.01 μM, yeast frozen mito) is 21.2843 nmol/min/mg and 38.526 nmol/min/mg and 37.46 nmol/min/mg; in assay [2] (Oligomycin-A 0.05 μM, yeast frozen mito), 16.4622 nmol/min/mg and 31.3703 nmol/min/mg; in assay [2] (Oligomycin-A 0.08 μM, yeast frozen mito), 15.1607 nmol/min/mg and 21.1456 nmol/min/mg and 29.9684 nmol/min/mg; in assay [2] (Oligomycin-A 0.2 μM, yeast frozen mito), 6.587 nmol/min/mg and 5.248 nmol/min/mg and 9.417 nmol/min/mg; in assay [2] (Oligomycin-A 0.6 μM, yeast frozen mito), 0.8771 nmol/min/mg and 1.272 nmol/min/mg and 1.435 nmol/min/mg. For the same compound, the inhibition at 0.05 µM in assay [2] (setting [6]) was found to be 16.9%. In assay [2] (setting [6]), the remaining activity at 0.05 µM was 83.1%. Besides, the inhibition at 0.6 µM in assay [2] (setting [7]) was determined as 95.6%. Besides, the remaining activity at 0.6 µM in assay [2] (setting [7]) came out at 4.43%. The inhibition at 1 µM in assay [2] (Oligomycin-A 1 μM, cyanide sensitive, yeast frozen mito, read-out: % inhibition) was found to be 100%; in assay [2] (read-out: inhibition of cyanide sensitive ATP synthesis, yeast mitochondria) it was 98%. In addition, the inhibition at 2 µM in assay [2] (Oligomycin-A 2 μM, cyanide sensitive, yeast frozen mito) is 100%.

On to venturicidin, for which the “uncoupling of the yeast mitochondrial ATP synthase” value in assay [3] is recorded as “uncouples”.
